In patent US20220016215A1, “GIP RECEPTOR AGONIST PEPTIDE COMPOUNDS AND USES THEREOF” (TAKEDA PHAARMACEUTICAL COMPANY LIMITED, priority 2018, published 2022):
Where “and” joins values, the source holds several entries; their conditions need not be identical. Equal entries are not always repeated. Marks after values point to notes of the source that are not given here.

Legend:
[1] = system: morphine (0.6 mg/kg, s.c.)-induced emesis in ferrets; experiment: Morphine-induced acute emetic model in male ferrets; type: in vivo, ferret; conditions: for Emesis: Duration / Emesis: Frequency / Emesis: No. of animals (responder/used) / Fidget: Duration / Fidget: Frequency / Fidget: No. of animals (responder/used) / Licking: Duration / Licking: Frequency / Licking: No. of animals (responder/used) / Retching: Duration / Retching: Frequency / Retching: No. of animals (responder/used) / Vomiting: Duration / Vomiting: Frequency / Vomiting: No. of animals (responder/used) / Emesis: Latency / Fidget: Latency / Licking: Latency / Retching: Latency / Vomiting: Latency: morphine 0.6 mg/kg s.c. 4 h after drug; for Emesis: Latency / Fidget: Latency / Licking: Latency / Retching: Latency / Vomiting: Latency: non-responders counted as 30 min; for Comment: Anti-Emetic Activity (inhibition) on morphine-induced emesis: summary of the morphine experiments
Method in brief: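 Male ferrets (4 per group) received peptide at 10 or 30 nmol/kg s.c. in 0.09% Tween 80/10% DMSO/saline, or vehicle. Morphine 0.6 mg/kg s.c. was given 4 or 120 h later, and abdominal contractions, vomiting, licking and fidgeting were recorded for up to 360 min.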

human GIPR = target: T1, human GIPR (Homo sapiens, UniProt P48546); experiment: Agonist activity on human GIPR, CRE-luciferase reporter assay (increase in intracellular cAMP as indicator); type: cell-based; conditions: GLP1R EC50 / GIPR EC50
T1 construct: expressed in transfected cells
T1 sequence (P48546 22-466): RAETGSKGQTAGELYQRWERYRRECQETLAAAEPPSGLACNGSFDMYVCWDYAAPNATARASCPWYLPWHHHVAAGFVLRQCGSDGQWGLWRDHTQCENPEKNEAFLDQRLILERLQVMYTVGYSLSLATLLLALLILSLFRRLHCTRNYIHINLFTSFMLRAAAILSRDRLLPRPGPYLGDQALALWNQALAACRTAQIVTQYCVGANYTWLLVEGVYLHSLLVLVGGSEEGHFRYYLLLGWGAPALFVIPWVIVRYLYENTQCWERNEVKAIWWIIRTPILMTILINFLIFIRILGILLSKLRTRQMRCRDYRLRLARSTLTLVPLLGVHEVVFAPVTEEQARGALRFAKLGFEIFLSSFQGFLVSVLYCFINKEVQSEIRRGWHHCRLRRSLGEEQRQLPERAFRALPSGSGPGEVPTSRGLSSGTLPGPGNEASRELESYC
From the text: The human GIPR gene having an identical sequence to Genebank Accession No. U39231 is cloned into a pMSRα-neo vector to prepare hGIPR/pMSRα-neo.
(2) Construction of Reporter Plasmid Expressing Cell
Luciferase reporter gene with a cAMP-responsive sequence located upstream is transferred to a CHO-K1 cell to construct a CRE-LUC/CHO-K1 cell.
(4) Transfer of Human GIPR Gene to CRE-LUC/CHO-K1 Cell and Obtaining of Expressing Cell
The plasmid hGIPR/pMSRα-neo obtained in (1) is transferred to the CRE-LUC/CHO-K1 cell obtained in (2) to obtain a transformant. Subsequently, the cell line inducing the luciferase expression, hGIPR/CRE-LUC/CHO-K1 cell, is selected from the obtained transformant by adding GIP.
25 μL each of the hGIPR/CRE-LUC/CHO-K1 cell is inoculated in a 384-well white plate (Corning) in such a way as to provide 5×10^3 cells/well and may be cultured in a HamF12 medium containing 10% fetal bovine serum, 100 U/mL penicillin, and 100 μg/mL streptomycin in a CO2 incubator at 37° C. overnight. 5 μL of a medium containing a test compound is added to the cells and incubated for 4 hours at the indicated concentration in a CO2 incubator at 37° C. Steady-Glo (Promega) is added in amounts of 30 μL and shaken under light shielding. Twenty minutes later, luciferase activity is measured using a plate reader Envision (PerkinElmer). The GIPR agonist activity is calculated with increase in intracellular cAMP concentration as the indicator when the luciferase activity in the presence of 10 nM of GIP was 100% and the luciferase activity in the case of adding DMSO instead of the test compound was 0%.

[2] = system: Y2R agonist-induced emesis in dogs; type: in vivo, dog; conditions: 30 nmol/kg s.c.
Experimental: Example 8 PYY-1119-Induced Vomiting in Dogs
Emetic episodes were counted for 2 hours after administration (by blinded analysis).
Emetic episodes were counted for 2 hours after Y2R agonist administration (by blinded analysis).

[3] = ferrets, 10 nmol/kg s.c., morphine administered 4 h after, cumulative total duration, individual animals and Mean
[4] = ferrets, 10 nmol/kg s.c., morphine administered 4 h after, individual animals and Mean
[5] = ferrets, 10 nmol/kg s.c., morphine administered 4 h after, individual animals and Mean, no emetic response = 30 min
[6] = ferrets, 10 nmol/kg s.c., morphine administered 4 h after, individual animals and Mean, no response = 30 min
[7] = female beagle dogs, Y2R agonist 10 μg/kg s.c. at 8 hours postdose
[8] = female beagle dogs, Y2R agonist 10 μg/kg s.c. at 8 hours postdose, counted for 2 hours

Compound: YAibEGTFISDYSIALDKI(Lys-(ethylene glycol)2-C15 diacid)QQDFVNWLLAQRG-OH [Compound 25]
- Retching Latency ([1]; ferrets, 10 nmol/kg s.c., morphine (0.6 mg/kg, s.c.) administered 4 h after, individual animals and Mean, no emetic response = 30 min): 30 min
- Emesis (Retching + Vomiting) Duration [1, 3]: 0 min (4×) and 0.0 min
- Retching Duration [1, 3]: 0 min
- Vomiting Duration [1, 3]: 0 min
- Fidget Duration [1, 4]: 0 min (4×) and 0.0 min
- Licking Duration [1, 4]: 0 min (4×) and 0.0 min
- Retching Frequency [1, 4]: 0
- Vomiting Frequency [1, 4]: 0
- Emesis (Retching + Vomiting) Latency [1, 5]: 30 min
- Vomiting Latency [1, 5]: 30 min
- Fidget Latency [1, 6]: 30 min (4×) and 30.0 min
- Licking Latency [1, 6]: 30 min (4×) and 30.0 min
- Emesis: Duration ([1]; ferrets, 10 nmol/kg s.c.): 0.0 ± 0.0 min
- Emesis: Frequency ([1]; ferrets, 10 nmol/kg s.c.): 0.0 ± 0.0
- Emesis: No. of animals (responder/used) ([1]; ferrets, 10 nmol/kg s.c.): 0/4 #
- Fidget: Duration ([1]; ferrets, 10 nmol/kg s.c.): 0.0 ± 0.0^ min
- Fidget: Frequency ([1]; ferrets, 10 nmol/kg s.c.): 0.0 ± 0.0
- Fidget: No. of animals (responder/used) ([1]; ferrets, 10 nmol/kg s.c.): 0/4 #
- Licking: Duration ([1]; ferrets, 10 nmol/kg s.c.): 0.0 ± 0.0^ min
- Licking: Frequency ([1]; ferrets, 10 nmol/kg s.c.): 0.0 ± 0.0
- Licking: No. of animals (responder/used) ([1]; ferrets, 10 nmol/kg s.c.): 0/4 #
- Retching: Duration ([1]; ferrets, 10 nmol/kg s.c.): 0.0 ± 0.0 min
- Retching: Frequency ([1]; ferrets, 10 nmol/kg s.c.): 0.0 ± 0.0
- Retching: No. of animals (responder/used) ([1]; ferrets, 10 nmol/kg s.c.): 0/4 #
- Vomiting: Duration ([1]; ferrets, 10 nmol/kg s.c.): 0.0 ± 0.0 min
- Vomiting: Frequency ([1]; ferrets, 10 nmol/kg s.c.): 0.0 ± 0.0
- Vomiting: No. of animals (responder/used) ([1]; ferrets, 10 nmol/kg s.c.): 0/4 #
- Emesis: Latency ([1]; ferrets, 10 nmol/kg s.c.): 30.0 ± 0.0 min
- Fidget: Latency ([1]; ferrets, 10 nmol/kg s.c.): 30.0 ± 0.0 min
- Licking: Latency ([1]; ferrets, 10 nmol/kg s.c.): 30.0 ± 0.0 min
- Retching: Latency ([1]; ferrets, 10 nmol/kg s.c.): 30.0 ± 0.0 min
- Vomiting: Latency ([1]; ferrets, 10 nmol/kg s.c.): 30.0 ± 0.0 min
- Comment: Anti-Emetic Activity (inhibition) on morphine-induced emesis ([1]; male ferrets): 100% inhibition
- Selectivity Ratio (B/A) (human GIPR): >100,000

Compound: CCCCCCCCCCCCCCCC(=O)NCCCC[C@H](NC(=O)[C@H](Cc1c[nH]c2ccccc12)NC(=O)[C@H](CC(=O)O)NC(=O)[C@H](CC(N)=O)NC(=O)[C@H](CCCCN)NC(=O)[C@H](CCCCN)NC(=O)CNC(=O)[C@H](CCCCN)NC(=O)[C@H](CCC(N)=O)NC(=O)[C@H](C)NC(=O)[C@H](CC(C)C)NC(=O)[C@H](CC(C)C)NC(=O)[C@H](Cc1c[nH]c2ccccc12)NC(=O)[C@H](CC(N)=O)NC(=O)[C@@H](NC(=O)[C@H](Cc1ccccc1)NC(=O)[C@H](CC(=O)O)NC(=O)[C@H](CCC(N)=O)NC(=O)[C@H](CCC(N)=O)NC(=O)[C@H](Cc1c[nH]cn1)NC(=O)[C@@H](NC(=O)[C@H](CCCCN)NC(=O)[C@H](CC(=O)O)NC(=O)[C@H](CCSC)NC(=O)[C@H](C)NC(=O)[C@@H](NC(=O)[C@H](CO)NC(=O)[C@H](Cc1ccc(O)cc1)NC(=O)[C@H](CC(=O)O)NC(=O)[C@H](CO)NC(=O)[C@@H](NC(=O)[C@H](Cc1ccccc1)NC(=O)[C@@H](NC(=O)CNC(=O)[C@H](CCC(=O)O)NC(=O)[C@@H](C)NC(=O)[C@@H](N)Cc1ccc(O)cc1)[C@@H](C)O)[C@@H](C)CC)[C@@H](C)CC)[C@@H](C)CC)C(C)C)C(=O)N[C@@H](Cc1c[nH]cn1)C(=O)N[C@@H](CC(N)=O)C(=O)N[C@H](C(=O)N[C@H](C(=O)N[C@@H](CCC(N)=O)C(N)=O)[C@@H](C)CC)[C@@H](C)CC [Compound 2]
- Emesis: Duration ([1]; ferret, 1047 μg/kg s.c.): 0.3 ± 0.6 min
- Emesis: Frequency ([1]; ferret, 1047 μg/kg s.c.): 2.7 ± 4.6
- Emesis: No. of animals (responder/used) ([1]; ferret, 1047 μg/kg s.c.): 1/3
- Fidget: Duration ([1]; ferret, 1047 μg/kg s.c.): 0.3 ± 0.6 min
- Fidget: Frequency ([1]; ferret, 1047 μg/kg s.c.): 0.3 ± 0.6
- Fidget: No. of animals (responder/used) ([1]; ferret, 1047 μg/kg s.c.): 1/3
- Licking: Duration ([1]; ferret, 1047 μg/kg s.c.): 0.0 ± 0.0 min
- Licking: Frequency ([1]; ferret, 1047 μg/kg s.c.): 0.0 ± 0.0
- Licking: No. of animals (responder/used) ([1]; ferret, 1047 μg/kg s.c.): 0/3 #
- Retching: Duration ([1]; ferret, 1047 μg/kg s.c.): 0.3 ± 0.6 min
- Retching: Frequency ([1]; ferret, 1047 μg/kg s.c.): 2.7 ± 4.6
- Retching: No. of animals (responder/used) ([1]; ferret, 1047 μg/kg s.c.): 1/3
- Vomiting: Duration ([1]; ferret, 1047 μg/kg s.c.): 0.0 ± 0.0 min
- Vomiting: Frequency ([1]; ferret, 1047 μg/kg s.c.): 0.0 ± 0.0
- Vomiting: No. of animals (responder/used) ([1]; ferret, 1047 μg/kg s.c.): 0/3
- Emesis: Latency ([1]; ferret, 1047 μg/kg s.c.): 22.7 ± 12.7 min
- Fidget: Latency ([1]; ferret, 1047 μg/kg s.c.): 22.7 ± 12.7 min
- Licking: Latency ([1]; ferret, 1047 μg/kg s.c.): 30.0 ± 0.0 min
- Retching: Latency ([1]; ferret, 1047 μg/kg s.c.): 22.7 ± 12.7 min
- Vomiting: Latency ([1]; ferret, 1047 μg/kg s.c.): 30.0 ± 0.0 min
- Attenuation of morphine-induced emesis (in words) ([1]; male ferrets, 30 nmol/kg s.c. 30 minutes before morphine 0.6 mg/kg s.c.): completely attenuated
- Comment: Anti-Emetic Activity (inhibition) on morphine-induced emesis ([1]; male ferrets): partial inhibition
- Selectivity Ratio (B/A) (human GIPR): 417

Compound: YAibEGTFISDYSIALDK(Lys-(ethylene glycol)2-C15 diacid)HQQDFVNWLLAQRG-OH [Compound 26]
- Anti-emetic effects in animal models of emesis (dogs) (in words) ([2]; dogs, Tables 16 and 17): significant anti-emetic effects
- Duration of emesis [2, 7]: 0.0 ± 0.0 min
- Latency period of emesis [2, 7]: 92.3 ± 55.5 min
- No. of animals that did not vomit [2, 8]: 3
- No. of emetic episodes [2, 8]: 0.3 ± 0.5
- No. of emetic episodes, % Inhibition ([2]; female beagle dogs, Y2R agonist at 8 hours postdose, decreased ratio of mean emetic episodes vs vehicle group): [96.6%]
- Selectivity Ratio (B/A) (human GIPR): >100,000
